Values joined by “and” are separate entries in the source; they are usually repeats but may differ in a detail not shown here. Equal entries are not always repeated. Inconclusive results and toxic doses are left out. Cut-off read from the data, not from the text of the source: active = T/C of 150% or more; inactive = T/C below 125%.
Test system: L1210 leukemia ip in BDF1 mice, survival T/C
Experiment: NCI In Vivo Anticancer Drug Screen. Data for tumor model L1210 Leukemia (intraperitoneal) in B6D2F1 (BDF1) mice
Settings: endpoint: mean survival time, higher = longer survival
How it was run: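 Transplantable tumor model; survival measured in treated vs vehicle control mice. Value = treated/control.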

[1] = dose: 100.0 mg/kg/injection, schedule: Q01DX009 (ip), vehicle: Klucel (hydroxypropylcellulose) (HPC)
[2] = dose: 100.0 mg/kg/injection, schedule: Q04DX003 (ip), vehicle: Klucel (hydroxypropylcellulose) (HPC)
[3] = dose: 200.0 mg/kg/injection, schedule: Q01DX009 (ip), vehicle: Klucel (hydroxypropylcellulose) (HPC)
[4] = dose: 200.0 mg/kg/injection, schedule: Q04DX003 (ip), vehicle: Klucel (hydroxypropylcellulose) (HPC)
[5] = dose: 400.0 mg/kg/injection, schedule: Q01DX009 (ip), vehicle: Klucel (hydroxypropylcellulose) (HPC)
[6] = dose: 400.0 mg/kg/injection, schedule: Q04DX003 (ip), vehicle: Klucel (hydroxypropylcellulose) (HPC)
[7] = dose: 25.0 mg/kg/injection, schedule: Q01DX009 (ip), vehicle: Klucel (hydroxypropylcellulose) (HPC)
[8] = dose: 25.0 mg/kg/injection, schedule: Q04DX002 (ip), vehicle: saline
[9] = dose: 50.0 mg/kg/injection, schedule: Q01DX009 (ip), vehicle: Klucel (hydroxypropylcellulose) (HPC)
[10] = dose: 50.0 mg/kg/injection, schedule: Q04DX002 (ip), vehicle: saline
[11] = dose: 100.0 mg/kg/injection, schedule: Q01DX001 (ip), vehicle: saline
[12] = dose: 200.0 mg/kg/injection, schedule: Q01DX001 (ip), vehicle: saline
[13] = dose: 400.0 mg/kg/injection, schedule: Q01DX001 (ip), vehicle: saline
[14] = dose: 100.0 mg/kg/injection, schedule: Q04DX003 (ip), vehicle: saline
[15] = dose: 200.0 mg/kg/injection, schedule: Q04DX003 (ip), vehicle: saline
[16] = dose: 400.0 mg/kg/injection, schedule: Q04DX003 (ip), vehicle: saline
[17] = dose: 100.0 mg/kg/injection, schedule: Q04DX002 (ip), vehicle: Klucel (hydroxypropylcellulose) (HPC)
[18] = dose: 200.0 mg/kg/injection, schedule: Q04DX002 (ip), vehicle: Klucel (hydroxypropylcellulose) (HPC)
[19] = dose: 400.0 mg/kg/injection, schedule: Q04DX002 (ip), vehicle: Klucel (hydroxypropylcellulose) (HPC)

Measured: T/C

CC(=O)CC(=O)Nc1cccc(C)c1C
inactive: [1] 95 % of control | [2] 97 % of control | [3] 88 % of control | [4] 106 % of control | [5] 88 % of control | [6] 105 % of control

O=C(Nc1ccccc1)OCCCC1CCCC1
inactive: dose: 100.0 mg/kg/injection, schedule: Q01DX009 (sc), vehicle: olive oil, sesame oil, peanut oil 108 % of control | dose: 200.0 mg/kg/injection, schedule: Q01DX009 (sc), vehicle: olive oil, sesame oil, peanut oil 105 % of control | dose: 400.0 mg/kg/injection, schedule: Q01DX009 (sc), vehicle: olive oil, sesame oil, peanut oil 100 % of control

c1cc(C2CO2)ccc1Oc1ccc(C2CO2)cc1 (centres undefined)
inactive: dose: 1.0 mg/kg/injection, schedule: Q01DX Z (ip), vehicle: methylcellulose (MC) 96 % of control | dose: 3.3 mg/kg/injection, schedule: Q01DX Z (ip), vehicle: methylcellulose (MC) 98 % of control | dose: 10.0 mg/kg/injection, schedule: Q01DX Z (ip), vehicle: methylcellulose (MC) 104 % of control | dose: 33.0 mg/kg/injection, schedule: Q01DX Z (ip), vehicle: methylcellulose (MC) 98 % of control | dose: 100.0 mg/kg/injection, schedule: Q01DX Z (ip), vehicle: methylcellulose (MC) 86 % of control

CCOC(=O)C(C)(O)C(C)(Cl)c1ccccc1 (centres undefined)
inactive: [7] 98 % of control | [8] 102 % of control | dose: 28.0 mg/kg/injection, schedule: Q01DX001 (ip), vehicle: saline 107 % of control | dose: 44.0 mg/kg/injection, schedule: Q01DX001 (ip), vehicle: saline 106 % of control | [9] 96 % of control | [10] 114 % of control | dose: 66.0 mg/kg/injection, schedule: Q01DX001 (ip), vehicle: saline 104 % of control | [11] 101 % of control | [1] 101 % of control | dose: 150.0 mg/kg/injection, schedule: Q01DX001 (ip), vehicle: saline 104 % of control | [3] 98 % of control | dose: 200.0 mg/kg/injection, schedule: Q04DX002 (ip), vehicle: saline 109 % of control and 111 % of control | dose: 400.0 mg/kg/injection, schedule: Q04DX002 (ip), vehicle: saline 114 % of control

COC1COC(OC)C(OC)C1OC (centres undefined)
inactive: [8] 87 % of control | [10] 104 % of control | dose: 100.0 mg/kg/injection, schedule: Q04DX002 (ip), vehicle: saline 90 % of control

Cc1ccc2c([nH]1)c(C)cc1nc3ccccc3c12
inactive: dose: 50.0 mg/kg/injection, schedule: Q01DX001 (ip), vehicle: carboxymethylcellulose (CMC) 103 % of control | dose: 50.0 mg/kg/injection, schedule: Q01DX001 (ip), vehicle: saline 95 % of control | [11] 101 % of control | dose: 200.0 mg/kg/injection, schedule: Q01DX001 (ip), vehicle: carboxymethylcellulose (CMC) 95 % of control | [12] 110 % of control | dose: 400.0 mg/kg/injection, schedule: Q01DX001 (ip), vehicle: carboxymethylcellulose (CMC) 104 % of control | [13] 101 % of control

CCSSCC(NC(=O)OC(C)(C)C)C(=O)O (centres undefined)
inactive: dose: 50.0 mg/kg/injection, schedule: Q04DX003 (ip), vehicle: other 97 % of control | dose: 100.0 mg/kg/injection, schedule: Q01DX001 (ip), vehicle: other 101 % of control | dose: 100.0 mg/kg/injection, schedule: Q04DX003 (ip), vehicle: other 94 % of control | dose: 200.0 mg/kg/injection, schedule: Q01DX001 (ip), vehicle: other 97 % of control | dose: 200.0 mg/kg/injection, schedule: Q04DX003 (ip), vehicle: other 97 % of control

CS(=O)(=O)O/C=C1\C(=O)OC2CCCCC12 (centres undefined)
inactive: dose: 12.5 mg/kg/injection, schedule: Q01DX009 (ip), vehicle: water 111 % of control | dose: 25.0 mg/kg/injection, schedule: Q01DX009 (ip), vehicle: water 105 % of control | dose: 50.0 mg/kg/injection, schedule: Q01DX009 (ip), vehicle: water 100 % of control | dose: 100.0 mg/kg/injection, schedule: Q01DX009 (ip), vehicle: water 105 % of control | dose: 200.0 mg/kg/injection, schedule: Q01DX009 (ip), vehicle: water 106 % of control

O=C(O)c1ccc2c(c1)OCO2
inactive: [1] 97 % of control | [3] 92 % of control | [5] 99 % of control

CCOC(=O)C(C)(Cc1c(C)cc(C)c(CC(C)(C(=O)OCC)C(=O)OCC)c1C)C(=O)OCC
inactive: [7] 95 % of control | dose: 25.0 mg/kg/injection, schedule: Q04DX003 (ip), vehicle: Klucel (hydroxypropylcellulose) (HPC) 98 % of control | [9] 91 % of control | dose: 50.0 mg/kg/injection, schedule: Q04DX003 (ip), vehicle: Klucel (hydroxypropylcellulose) (HPC) 96 % of control | [1] 96 % of control | [2] 100 % of control

O=C(COc1ccc(Cl)cc1)Nc1ccc(F)cc1
inactive: [1] 98 % of control | [2] 95 % of control | [3] 90 % of control | [6] 95 % of control

CCCCCCCC/C=C\CCCCCCCCOCC(O)CO (centres undefined)
inactive: dose: 50.0 mg/kg/injection, schedule: Q01DX009 (ip), vehicle: acetone 87 % of control | [11] 87 % of control | dose: 100.0 mg/kg/injection, schedule: Q01DX009 (ip), vehicle: acetone 93 % of control | dose: 100.0 mg/kg/injection, schedule: Q04DX003 (ip), vehicle: acetone 100 % of control | [12] 91 % of control | dose: 200.0 mg/kg/injection, schedule: Q04DX003 (ip), vehicle: acetone 103 % of control | [13] 86 % of control

N#CC1(c2ccccc2)CCCC1(C#N)c1ccccc1 (centres undefined)
inactive: dose: 75.0 mg/kg/injection, schedule: Q01DX001 (ip), vehicle: carboxymethylcellulose (CMC) 86 % of control | dose: 150.0 mg/kg/injection, schedule: Q01DX001 (ip), vehicle: carboxymethylcellulose (CMC) 88 % of control | dose: 300.0 mg/kg/injection, schedule: Q01DX001 (ip), vehicle: carboxymethylcellulose (CMC) 86 % of control

O=C(Nc1cccs1)c1ccccc1
inactive: [14] 97 % of control | [15] 93 % of control | [16] 95 % of control

O=[N+]([O-])c1cc[n+]([O-])c(Br)c1
inactive: dose: 100.0 mg/kg/injection, schedule: Q01DX009 (ip), vehicle: saline with Tween-80 98 % of control | dose: 100.0 mg/kg/injection, schedule: Q04DX003 (ip), vehicle: saline with Tween-80 108 % of control | dose: 200.0 mg/kg/injection, schedule: Q01DX009 (ip), vehicle: saline with Tween-80 103 % of control | dose: 200.0 mg/kg/injection, schedule: Q04DX003 (ip), vehicle: saline with Tween-80 101 % of control | dose: 400.0 mg/kg/injection, schedule: Q01DX009 (ip), vehicle: saline with Tween-80 97 % of control | dose: 400.0 mg/kg/injection, schedule: Q04DX003 (ip), vehicle: saline with Tween-80 93 % of control

Cc1c(O)c([N+](=O)[O-])cc2c1OCOC2
inactive: [2] 96 % of control | [4] 102 % of control | [6] 93 % of control

N/C(=N/O)c1cn(C2OC(CO)C(O)C2O)c2ncnc(NO)c12 (centres undefined)
inactive: dose: 12.5 mg/kg/injection, schedule: Q01DX009 (ip), vehicle: saline 121 % of control | dose: 25.0 mg/kg/injection, schedule: Q01DX009 (ip), vehicle: saline 86 % of control

OCCOc1ccc(Br)cc1
inactive: [17] 92 % of control | [18] 95 % of control | [19] 92 % of control

Cn1c(=O)cc(C=Nc2ccc(S(N)(=O)=O)cc2)c2ccccc21
inactive: [11] 102 % of control | [12] 100 % of control | [13] 98 % of control

Cc1cc(=O)cc(Nc2ccccc2)o1
inactive: [17] 93 % of control | [18] 90 % of control | [19] 101 % of control

O=C(c1ccccc1)c1cc(O)c(O)c(O)c1
inactive: dose: 100.0 mg/kg/injection, schedule: Q01DX009 (ip), vehicle: other 99 % of control | [14] 100 % of control | dose: 200.0 mg/kg/injection, schedule: Q01DX009 (ip), vehicle: other 90 % of control | [15] 94 % of control | dose: 400.0 mg/kg/injection, schedule: Q01DX009 (ip), vehicle: other 99 % of control | [16] 100 % of control
